Measured values reported in US6444852B1, “Amines useful in inhibiting gas hydrate formation” (Goldschmidt Chemical Corporation, priority 1999, dated 2002).

Experiments:
[1] = Behavior (solubility/dispersibility) in water and […] brine at 5% concentration; format: physicochemical; conditions: 5% concentration as is
From the text: The compounds tested are set forth in the following Table 1, CE# denotes a comparative example, whereas S# denotes a compound of the present invention.

[2] = Anti-agglomeration of gas hydrates in presence of crude oil (high-pressure autoclave); conditions: for State of the hydrates after depressurization: 1.125% solvent-free basis in salt water, 3300 psi, 40° F. 16 hours
Experimental: The comparative test was carried out at a 50:50 oil to water ratio.
The crude oil was heated to 150° F. to dissolve waxes. […] To saturate the liquid with gas, after 30 minutes, the agitation was reduced to 100 rpm and the autoclave was cooled at 10° F./hr to 40° F., at which time, agitation was stopped and the 40° F. temperature was maintained for 16 hours.
After the 16 hour time period, agitation was restarted at 500 rpm to determine the torque required and the experiment was run for 5 hours, if possible. The autoclave was then rapidly depressurized and the state of the hydrates was observed.

Compound	Behavior in […] Brine [1]	Behavior in Water [1]	State of the hydrates after depressurization ([2]; oil to water 50:50)	State of the hydrates after depressurization ([2]; oil to water 70:30)	Gas hydrates on the walls of the reactor ([2]; 1.125% solvent-free basis, 70:30 and 50:50 ratios)	Effectiveness as anti-agglomeration agent ([2]; low use levels)
CCCCCCCCCCCCCCCC[N+](CCCC)(CCCC)CCCC.[Br-] [CE2, Hexadecyl tributyl ammonium bromide, reference compound]		Insoluble				
C12-C14 oxypropyl tributylammonium bromide [Sample S1]			very small particles which were creamy in texture	very small particles which were creamy in texture	No gas hydrates were observed on the walls of the reactor	highly effective

Second part, led by results:

Behavior in […] Brine [1]	Behavior in Water [1]	Compound	State of the hydrates after depressurization ([2]; oil to water 50:50)	State of the hydrates after depressurization ([2]; oil to water 70:30)	Gas hydrates on the walls of the reactor ([2]; 1.125% solvent-free basis, 70:30 and 50:50 ratios)	Effectiveness as anti-agglomeration agent ([2]; low use levels)
Soluble	Soluble	C12-C14 oxypropyl dibutyl amino propyl tributylammonium dibromide [Sample S5]				
Soluble	Soluble	C12-C14 oxypropyl dibutyl methylammonium methyl sulfate [Sample S2]				
Soluble	Soluble	C12-C14 oxypropyl dibutyl ethylammonium ethylsulfate [Sample S4]				
